From patent US20250034161A1, “SPIROCYCLIC COMPOUND AS KRAS-G12C INHIBITOR” (Shanghai Euregen Biopharma Co., Ltd., priority 2020, published 2025)

How the values were obtained:
CYP1A2 = biological target: T1, CYP1A2 (Homo sapiens, UniProt P05177); assay: CYP inhibition test, human liver microsomes, CYP1A2
T1 sequence (P05177 1-516): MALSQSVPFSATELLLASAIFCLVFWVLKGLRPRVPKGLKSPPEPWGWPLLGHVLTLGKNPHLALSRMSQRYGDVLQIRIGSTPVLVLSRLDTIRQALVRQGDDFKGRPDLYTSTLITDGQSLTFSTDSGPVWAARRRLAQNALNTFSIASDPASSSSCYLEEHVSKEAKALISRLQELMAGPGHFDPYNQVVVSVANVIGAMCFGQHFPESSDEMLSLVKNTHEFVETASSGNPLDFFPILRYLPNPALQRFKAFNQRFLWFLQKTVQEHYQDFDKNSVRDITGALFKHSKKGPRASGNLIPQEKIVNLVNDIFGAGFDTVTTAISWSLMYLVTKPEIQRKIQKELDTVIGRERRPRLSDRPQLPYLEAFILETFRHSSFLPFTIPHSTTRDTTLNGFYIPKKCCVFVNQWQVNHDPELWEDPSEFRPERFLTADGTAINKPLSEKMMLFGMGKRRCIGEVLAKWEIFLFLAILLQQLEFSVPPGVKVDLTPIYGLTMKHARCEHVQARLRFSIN
Protocol: (§1) • 1. Test purpose: to evaluate the inhibitory ability of some of the example compounds of the present invention against CYP1A2, 2B6, 2C8, 2C9, 2C19, 2D6 and 3A4 via human liver microsomes. • 2. […] Test method:
(§2) • 1. K/Mg buffer: the components were 0.1 mol/L potassium phosphate and 5 mmol/L magnesium chloride with pH 7.4±0.1, preheated. • 2. Solution of the test compound: the test compound was dissolved in dimethyl sulfoxide to prepare a stock solution of 10 mmol/L. 8 μL of 10 mmol/L stock solution was transferred to a 96-well plate containing 12 μL of acetonitrile as the highest concentration point, at 3-fold dilution, for 8 concentrations. • 3. NADPH solution: 66.7 mg of NADPH was dissolved in 10 mL of 0.1 mol/L K/Mg buffer to obtain 8 mmol/L NADPH solution with pH 7.4. • 4. Human liver microsomal stock solution: human liver microsomes were dissolved in 0.1 mol/L K/Mg buffer to obtain 20 mg/mL stock solution. • 5. Human liver microsomal working solution: 10 μL of 20 mg/mL human liver microsomal stock solution was taken and added into 990 μL of 0.1 mol/L K/Mg buffer to prepare 0.2 mg/mL human liver microsomal solution. • 6. […]

CYP 2C8 = biological target: T2, CYP 2C8 (Homo sapiens, UniProt P10632); assay: CYP inhibition test, human liver microsomes, CYP2C8
T2 sequence (P10632 1-490): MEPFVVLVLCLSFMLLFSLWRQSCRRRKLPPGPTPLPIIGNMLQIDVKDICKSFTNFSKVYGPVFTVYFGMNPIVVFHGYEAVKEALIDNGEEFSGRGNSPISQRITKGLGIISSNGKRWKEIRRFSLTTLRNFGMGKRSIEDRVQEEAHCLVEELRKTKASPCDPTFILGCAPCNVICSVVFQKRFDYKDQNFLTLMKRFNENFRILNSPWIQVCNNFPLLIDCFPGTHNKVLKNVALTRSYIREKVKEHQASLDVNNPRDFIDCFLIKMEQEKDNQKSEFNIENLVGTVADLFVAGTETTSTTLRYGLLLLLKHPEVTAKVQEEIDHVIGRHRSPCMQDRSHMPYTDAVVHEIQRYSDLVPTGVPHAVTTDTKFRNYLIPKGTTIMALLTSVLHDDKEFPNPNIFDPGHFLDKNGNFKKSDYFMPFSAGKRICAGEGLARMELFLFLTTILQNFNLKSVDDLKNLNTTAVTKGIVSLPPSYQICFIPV
Protocol: as §1, §2

SMILES | IC50 (CYP1A2) | IC50 (CYP 2C8)
C=CC(=O)N1CCN(c2nc(=O)n(-c3c(C)ccnc3C(C)C)c3nc(-c4c(O)cccc4F)c(F)cc23)[C@@H](C)C1 [AMG510] | > 10 µM | > 10 µM
C=C(F)C(=O)N1CCN(c2nc(OC[C@@H]3CCCN3C)nc3c2CCN(c2cccc4cccc(Cl)c24)C3)C[C@@H]1CC#N [MRTX849] | > 10 µM | > 10 µM
